Results from the supplement of paper PMC10307832.

Legend:
Experiment in all cases: relative viability (nuclei count vs DMSO), 5 days (fraction); higher = more cells survive
[1] = compound: C1=CC(=CC=C1C2=CC(=C(S2)NC(=O)N)C(=O)N)F [TPCA-1] + O=C(c1cc(Cc2n[nH]c(=O)c3ccccc23)ccc1F)N1CCN(C(=O)C2CC2)CC1 [Olaparib] (partner 8 µM)
How it was run: (§1)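 Relative viability is defined as nuclei in treated wells over nuclei in vehicle wells. Duplicate plates were run and medians reported. Lung cancer cell lines in 1536-well plates were dosed by pin tool one day after seeding, with one drug or with a fixed anchor-drug dose plus five library-drug doses (not always all listed) in √10 steps, and nuclei were counted after 5 days.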

[2] = compound: C[C@]12O[C@H](C[C@]1(O)CO)n1c3ccccc3c3c4c(c5c6ccccc6n2c5c31)CNC4=O [Lestaurtinib] + O=C(c1cc(Cc2n[nH]c(=O)c3ccccc23)ccc1F)N1CCN(C(=O)C2CC2)CC1 [Olaparib] (partner 8 µM)
How it was run: as §1

[3] = compound: C1=CC(=CC=C1C2=CC(=C(S2)NC(=O)N)C(=O)N)F [TPCA-1] + COc1cccc2cc(-c3nc([C@H]4CC[C@H](C(=O)O)CC4)n4ncnc(N)c34)[nH]c12 [OSI-027] (partner 0.5 µM)
How it was run: as §1

[4] = compound: C[C@]12O[C@H](C[C@]1(O)CO)n1c3ccccc3c3c4c(c5c6ccccc6n2c5c31)CNC4=O [Lestaurtinib] + CS(=O)(=O)N1CCN(Cc2cc3nc(-c4cccc5[nH]ncc45)nc(N4CCOCC4)c3s2)CC1 [Pictilisib] (partner 1 µM)
How it was run: as §1

Cell Line	relative viability ([1]; first compound 0.1265 µM)	relative viability ([1]; first compound 0.4 µM)	relative viability ([1]; first compound 1.265 µM)	relative viability ([1]; first compound 4 µM)	relative viability ([2]; first compound 0.005 µM)	relative viability ([2]; first compound 0.01581 µM)	relative viability ([2]; first compound 0.05 µM)	relative viability ([2]; first compound 0.1581 µM)	relative viability ([2]; first compound 0.5 µM)	relative viability ([3]; first compound 0.04 µM)	relative viability ([3]; first compound 0.1265 µM)	relative viability ([3]; first compound 0.4 µM)	relative viability ([3]; first compound 1.265 µM)	relative viability ([3]; first compound 4 µM)	relative viability ([4]; first compound 0.005 µM)	relative viability ([4]; first compound 0.01581 µM)	relative viability ([4]; first compound 0.05 µM)	relative viability ([4]; first compound 0.1581 µM)	relative viability ([4]; first compound 0.5 µM)	relative viability ([1]; first compound 0.04 µM)
HCC-366	0.304	0.37	0.348	0.239	0.375	0.338	0.35	0.455	0.254	1.07	0.8	0.914	0.52	0.0324	0.159	0.178	0.192	0.101	0.0482	–
SK-LU-1	0.37	0.428	0.418	0.315	0.431	0.397	0.382	0.362	0.218	0.4	0.317	0.312	0.248	0.234	0.464	0.464	0.297	0.436	0.246	0.544
HCC-44	0.938	0.95	0.908	0.937	0.994	0.984	0.96	1.16	0.675	0.64	0.462	0.503	–	0.495	0.528	0.758	0.466	0.569	0.448	0.983
A-427	0.686	0.778	0.777	0.65	0.802	0.745	0.712	0.485	0.315	0.528	0.359	0.546	0.332	0.195	0.769	0.668	0.461	0.239	0.101	0.818
